What was measured:
Assay in all cases: relative viability (nuclei count vs DMSO), 5 days (fraction); higher = more cells survive
[1] = compound: O=C(CCCCCCC(=O)Nc1ccccc1)NO [Vorinostat]
Procedure, shortened: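 Lung cancer cell lines received five library-drug doses (not always all listed) spaced by √10, pinned on vehicle-anchored 1536-well plates after an overnight stay at 37 °C. Five days later, with no medium change, nuclei were Hoechst-stained, imaged at 4× and counted with MetaXpress. Viability is treated-well nuclei relative to vehicle-well nuclei, as a median across plates. Passing plates had control CV below 25% and at least one doubling.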

[2] = compound: O=C(CCCCCCC(=O)Nc1ccccc1)NO [Vorinostat] + CC1(C)CCC(c2ccc(Cl)cc2)=C(CN2CCN(c3ccc(C(=O)NS(=O)(=O)c4ccc(N[C@H](CCN5CCOCC5)CSc5ccccc5)c(S(=O)(=O)C(F)(F)F)c4)cc3)CC2)C1 [Navitoclax] (partner 0.5 µM)
Procedure, shortened: (§1)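 Relative viability equals treated-well nuclei counts divided by vehicle-well nuclei counts. Counts came from 4× images of lung cancer cell lines grown in 1536-well plates for 5 days after pin-tool dosing on the day after seeding. Dosing used one drug alone or a fixed anchor-drug dose plus five library-drug doses (not always all listed) in √10 steps, and values are medians of duplicate plates.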

[3] = compound: O=C(CCCCCCC(=O)Nc1ccccc1)NO [Vorinostat] + C[C@@H](Oc1cc(-c2cnn(C3CCNCC3)c2)cnc1N)c1c(Cl)ccc(F)c1Cl [Crizotinib] (partner 1 µM)
Procedure, shortened: as §1

[4] = compound: O=C(CCCCCCC(=O)Nc1ccccc1)NO [Vorinostat] + C[C@]1(O)C[C@@H](c2nc(-c3ccc4ccc(-c5ccccc5)nc4c3)c3c(N)nccn32)C1 [Linsitinib] (partner 1 µM)
Procedure, shortened: as §1

[5] = compound: O=C(CCCCCCC(=O)Nc1ccccc1)NO [Vorinostat] + CS(=O)(=O)CCNCc1ccc(-c2ccc3ncnc(Nc4ccc(OCc5cccc(F)c5)c(Cl)c4)c3c2)o1 [Lapatinib] (partner 2 µM)
Procedure, shortened: as §1

[6] = compound: O=C(CCCCCCC(=O)Nc1ccccc1)NO [Vorinostat] + CS(=O)(=O)N1CCN(Cc2cc3nc(-c4cccc5[nH]ncc45)nc(N4CCOCC4)c3s2)CC1 [Pictilisib] (partner 1 µM)
Procedure, shortened: as §1

[7] = compound: O=C(CCCCCCC(=O)Nc1ccccc1)NO [Vorinostat] + COc1cc2c(Oc3ccc(NC(=O)C4(C(=O)Nc5ccc(F)cc5)CC4)cc3F)ccnc2cc1OCCCN1CCOCC1 [Foretinib] (partner 0.25 µM)
Procedure, shortened: as §1

[8] = compound: O=C(CCCCCCC(=O)Nc1ccccc1)NO [Vorinostat] + O=C(c1cc(Cc2n[nH]c(=O)c3ccccc23)ccc1F)N1CCN(C(=O)C2CC2)CC1 [Olaparib] (partner 8 µM)
Procedure, shortened: as §1

[9] = compound: O=C(CCCCCCC(=O)Nc1ccccc1)NO [Vorinostat] + Cc1nc(NC(=O)N2CCC[C@H]2C(N)=O)sc1-c1ccnc(C(C)(C)C(F)(F)F)c1 [Alpelisib] (partner 2 µM)
Procedure, shortened: as §1

[10] = compound: O=C(CCCCCCC(=O)Nc1ccccc1)NO [Vorinostat] + CC(C)C[C@H](NC(=O)[C@H](Cc1ccccc1)NC(=O)c1cnccn1)B(O)O [Bortezomib] (partner 0.002 µM)
Procedure, shortened: as §1

| Cell Line | relative viability ([1]; 0.253 µM) | relative viability ([1]; 0.8 µM) | relative viability ([1]; 2.53 µM) | relative viability ([1]; 8 µM) | relative viability ([2]; first compound 0.253 µM) | relative viability ([2]; first compound 0.8 µM) | relative viability ([2]; first compound 2.53 µM) | relative viability ([2]; first compound 8 µM) | relative viability ([3]; first compound 0.253 µM) | relative viability ([3]; first compound 0.8 µM) | relative viability ([3]; first compound 2.53 µM) | relative viability ([3]; first compound 8 µM) | relative viability ([4]; first compound 0.253 µM) | relative viability ([4]; first compound 0.8 µM) | relative viability ([4]; first compound 2.53 µM) | relative viability ([4]; first compound 8 µM) | relative viability ([5]; first compound 0.253 µM) | relative viability ([5]; first compound 0.8 µM) | relative viability ([5]; first compound 2.53 µM) | relative viability ([5]; first compound 8 µM) | relative viability ([6]; first compound 0.253 µM) | relative viability ([6]; first compound 0.8 µM) | relative viability ([6]; first compound 2.53 µM) | relative viability ([6]; first compound 8 µM) | relative viability ([7]; first compound 0.253 µM) | relative viability ([7]; first compound 0.8 µM) | relative viability ([7]; first compound 2.53 µM) | relative viability ([7]; first compound 8 µM) | relative viability ([8]; first compound 0.253 µM) | relative viability ([8]; first compound 0.8 µM) | relative viability ([8]; first compound 2.53 µM) | relative viability ([8]; first compound 8 µM) | relative viability ([9]; first compound 0.253 µM) | relative viability ([9]; first compound 0.8 µM) | relative viability ([9]; first compound 2.53 µM) | relative viability ([9]; first compound 8 µM) | relative viability ([10]; first compound 0.253 µM) | relative viability ([10]; first compound 0.8 µM) | relative viability ([10]; first compound 2.53 µM) | relative viability ([10]; first compound 8 µM) |
| --- | --- | --- | --- | --- | --- | --- | --- | --- | --- | --- | --- | --- | --- | --- | --- | --- | --- | --- | --- | --- | --- | --- | --- | --- | --- | --- | --- | --- | --- | --- | --- | --- | --- | --- | --- | --- | --- | --- | --- | --- |
| NCI-H1299 | 1.06 | 0.979 | 0.786 | 0.36 | 1.07 | 1 | 0.767 | 0.444 | 0.992 | 0.812 | 0.554 | 0.291 | 1.15 | 0.923 | 0.51 | 0.265 | 0.979 | 0.87 | 0.736 | 0.466 | 1.1 | 0.677 | 0.221 | 0.075 | 1.05 | 1.06 | 0.717 | 0.277 | 1 | 0.909 | 0.642 | 0.329 | 1.15 | 1.05 | 0.789 | 0.454 | 1.07 | 1.03 | 0.826 | 0.343 |
| Calu-6 | 1.07 | 0.894 | 0.361 | 0.0946 | 0.849 | 0.761 | 0.212 | 0.0656 | 0.745 | 0.5 | 0.153 | 0.0713 | 0.995 | 0.868 | 0.293 | 0.0756 | 1.12 | 0.876 | 0.416 | 0.107 | 1.11 | 0.838 | 0.238 | 0.0615 | 0.975 | 0.728 | 0.183 | 0.0381 | 0.527 | 0.377 | 0.169 | 0.078 | 1.25 | 0.917 | 0.302 | 0.0879 | 0.917 | 0.864 | 0.434 | 0.127 |

— the supplement of paper PMC10307832
